Test results: ChEMBL document CHEMBL1124983, “Benzophenone dicarboxylic acid antagonists of leukotriene B4. 1. Structure-activity relationships of the benzophenone nucleus” (J Med Chem, 1990)

Legend:
Type in all cases: functional
[1] = biological target: Leukotriene B4 receptor 1 (Homo sapiens) (UniProt Q15722); test: Antagonistic activity against Leukotriene B4 receptor by using [3H]LTB4 as a radioligand at a concentration of 10e-5 M
[2] = biological target: Leukotriene B4 receptor 1 (Homo sapiens) (UniProt Q15722); test: Antagonistic activity against Leukotriene B4 receptor by using [3H]LTB4 as a radioligand at a concentration of 10e-6 M
[3] = biological target: Leukotriene B4 receptor 1 (Homo sapiens) (UniProt Q15722); test: Antagonistic activity against Leukotriene B4 receptor by using [3H]LTB4 as a radioligand at a concentration of 10e-7 M

Leukotriene B4 receptor 1 (Homo sapiens), sequence (Q15722 whole entry): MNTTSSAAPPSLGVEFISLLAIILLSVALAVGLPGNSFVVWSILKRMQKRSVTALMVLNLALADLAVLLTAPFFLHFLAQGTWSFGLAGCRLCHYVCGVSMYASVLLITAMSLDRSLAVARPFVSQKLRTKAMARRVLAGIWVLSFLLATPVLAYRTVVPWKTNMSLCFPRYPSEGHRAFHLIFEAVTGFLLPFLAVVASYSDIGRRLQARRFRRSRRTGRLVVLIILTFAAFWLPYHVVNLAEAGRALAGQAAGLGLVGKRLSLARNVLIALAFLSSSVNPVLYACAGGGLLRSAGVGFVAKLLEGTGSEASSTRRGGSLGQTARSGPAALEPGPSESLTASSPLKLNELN

Row | SMILES | inhibition [1] [%] | inhibition [2] [%] | inhibition [3] [%]
1 | C=C(c1cccc(C(=O)O)c1)c1ccc(OCCCCCCCCCC)c(CCC(=O)O)c1 | 71 | 39 | –
2 | CCCCCCCCCCOc1ccc(C(O)c2cccc(C(=O)O)c2)cc1CCC(=O)O (stereo unspecified) | 91 | 55 | –
3 | CCCCCCCCCCOc1ccc(C(=O)c2cccc(C(=O)O)c2)cc1C(=O)O | 76 | 21 | –
4 | CCCCCCCCCCOc1ccc(C(=O)c2cccc(-c3nn[nH]n3)c2)cc1CC(=O)O | 93 | 28 | –
5 | CCCCCCCCCCOc1ccc(C(=O)c2cccc(Cc3nnn[nH]3)c2)cc1CCC(=O)O | 99 | 68 | –
6 | CCCCCCCCCCOc1ccc(Oc2cccc(C(=O)O)c2)cc1CCC(=O)O | 88 | 41 | –
7 | CCCCCCCCCCOc1ccc(C(=O)c2cccc(C(=O)O)c2)c(CC(=O)O)c1 | 74 | 23 | –
8 | CCCCCCCCCCOc1ccc(C(=O)c2cccc([N+](=O)[O-])c2)cc1CCC(=O)O | 13 | 0 | –
9 | CCCCCCCCCCOc1ccc(C(=O)c2cccc(C(=O)O)c2)cc1Cc1nnn[nH]1 | 83 | 34 | –
10 | CCCCCCCCCCOc1ccc(C(=O)c2cccc(-c3nn[nH]n3)c2)cc1CCC(=O)OCC | 0 | 1 | –
11 | CCCCCCCCCCOc1ccc(C(=O)c2cccc(C(=O)O)c2)cc1CCc1nnn[nH]1 | 96 | 55 | –
12 | CCCCCCCCCCOc1ccc(C(O)c2cccc(C(=O)O)c2)cc1CC(=O)O (stereo unspecified) | 75 | 28 | –
13 | O=C(O)CCc1cc(/C(=N\O)c2cccc(C(=O)O)c2)ccc1OCCCCCCc1ccccc1 | 96 | 84 | 30
14 | CCCCCCCCCCOc1ccc(C(=O)c2cccc(C(=O)O)c2)c(O)c1 | 19 | 13 | –
15 | O=C(O)CCc1cc(NC(=O)c2cccc(C(=O)O)c2)ccc1OCCCCCCc1ccccc1 | 98 | 73 | –
16 | CCCCCCCCCCOc1ccc(C(=O)c2cccc(C(=O)NC)c2)cc1CCC(=O)NC | 0 | 0 | –
17 | O=C(O)CCc1cc([S+]([O-])c2cccc(C(=O)O)c2)ccc1OCCCCCCc1ccccc1 (stereo unspecified) | 79 | 71 | 37
18 | CCCCCCCCCCOc1ccc(C(=O)c2cccc(S(=O)(=O)NC)c2)cc1CCC(=O)O | 22 | 9 | –
19 | CCCCCCCCCCOc1ccc(C(=O)c2ccccc2)cc1CC(=O)O | 24 | 1 | –
20 | CCCCCCCCCCOc1ccc(C(=O)Cc2ccccc2C(=O)O)cc1CCC(=O)O | 95 | 53 | –
21 | CCCCCCCCCCOc1ccc(C(=O)c2cccc(C(=O)OCC)c2)cc1Cc1nnn[nH]1 | 0 | 14 | –

Row | SMILES | inhibition [1] [%] | inhibition [2] [%] | inhibition [3] [%]
22 | CCCCCCCCCCOc1ccc(Cc2cccc(C(=O)O)c2)cc1CCC(=O)O | 88 | 41 | –
23 | CCCCCCCCCCOc1ccc(C(=O)c2cccc(C(=O)O)c2)cc1CCCC(=O)O | 89 | 52 | –
24 | CCCCCCCCCCOc1ccc(C(=O)c2cccc(-c3nnn[nH]3)c2)cc1Cc1nnn[nH]1 | 81 | 20 | –
25 | O=C(O)CCc1cc(C(=O)c2cccc(C(=O)O)c2)ccc1OCCCCCCc1ccccc1 | 100 | 85 | –
26 | CCCCCCCCCCOc1ccc(C(=O)c2cccc(C#N)c2)cc1CC#N | 3 | 0 | –
27 | CCCCCCCCCCOc1ccc(C(OCC)c2cccc(C(=O)O)c2)cc1CCC(=O)O (stereo unspecified) | 78 | 26 | –
28 | CCCCCCCCCCOc1ccc(/C(=N\O)c2cccc(C(=O)O)c2)cc1CCC(=O)O | 92 | 61 | –
29 | CCCCCCCCCCOc1ccc(C(=O)c2cccc(C(=O)O)c2)cc1CCC(=O)O | 95 | 60 | –
30 | CCCCCCCCCCOc1ccc(C(=O)c2cccc(C(=O)OCC)c2)cc1CC(=O)OCC | 0 | 0 | –
31 | CCCCCCCCCCOc1ccc(C(=O)c2ccccc2CC(=O)O)cc1CCC(=O)O | 100 | 79 | –
32 | CCCCCCCCCCOc1ccc(C(=O)CCCC(=O)O)cc1CC(=O)O | 39 | 2 | –
33 | O=C(O)CCc1cc(S(=O)(=O)c2cccc(C(=O)O)c2)ccc1OCCCCCCc1ccccc1 | 100 | 79 | 24
34 | O=C(O)CCc1cccc(NC(=O)c2cccc(C(=O)O)c2)c1OCCCCCCc1ccccc1 | 24 | 0 | –
35 | CCCCCCCCCCOc1ccc(C(O)c2ccc(C(=O)O)cc2)cc1CC(=O)O (stereo unspecified) | 59 | 15 | –
36 | CCCCCCCCCCOc1ccc(C(=O)c2ccccc2C(=O)O)cc1CC(=O)O | 60 | 7 | –
37 | CCCCCCCCCCOc1ccc(C(=O)c2ccc(C(=O)O)cc2)cc1CC(=O)O | 76 | 35 | –
38 | CCCCCCCCCCOc1ccc(C(=O)c2cccc(-c3nn[nH]n3)c2)cc1CCC(=O)O | 98 | 71 | –
39 | O=C(O)CCc1cc(Sc2cccc(C(=O)O)c2)ccc1OCCCCCCc1ccccc1 | 102 | 67 | 29
40 | CCCCCCCCCCOc1ccc(C(=O)c2cccc(C(=O)O)c2)cc1CC(=O)O | 73 | 27 | –
41 | CCCCCCCCCCOc1ccc(C(O)c2cccc(C(=O)O)c2)cc1 (stereo unspecified) | 0 | 3 | –
